# According to PubChem BioAssay (NCI):
#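 Following 48 hours of exposure in 96-well plates, responses at five concentrations were used to interpolate endpoints linearly. The concentration for full growth arrest is given as TGI.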
# Experiments:
# Experiment in all cases: NCI anticancer screen, dose series, 48 h
# [1] = test system: HCT-116 colon
# [2] = test system: SK-MEL-28 melanoma
# [3] = test system: SW-620 colon
# [4] = test system: NCI-H460 lung
# [5] = test system: SNB-75 CNS
# [6] = test system: UO-31 renal
# [7] = test system: NCI-H226 lung
# [8] = test system: OVCAR-5 ovarian
# [9] = test system: A549 NSCLC
# [10] = test system: HL-60(TB) leukemia
# [11] = test system: UACC-62 melanoma
# [12] = test system: HCC-2998 colon
# [13] = test system: SR leukemia
# [14] = test system: COLO 205 colon
# [15] = test system: SF-268 CNS
# [16] = test system: TK-10 renal
# [17] = test system: BT-549 breast
# [18] = test system: HS 578T breast
# [19] = test system: LOX IMVI melanoma
# [20] = test system: U251 CNS
# [21] = test system: M14 melanoma
# [22] = test system: MDA-N
# [23] = test system: HT29 colon
# [24] = test system: OVCAR-8 ovarian
# [25] = test system: OVCAR-3 ovarian
# [26] = test system: NCI-H23 lung
# [27] = test system: NCI-H522 lung
# [28] = test system: ACHN renal
# [29] = test system: MALME-3M melanoma
# [30] = test system: SN12C renal
# [31] = test system: RPMI-8226 leukemia
# [32] = test system: SNB-19 CNS
# [33] = test system: A498 renal
# [34] = test system: SK-MEL-5 melanoma
# [35] = test system: MDA-MB-231 breast
# [36] = test system: SK-MEL-2 melanoma
# [37] = test system: OVCAR-4 ovarian
# [38] = test system: CAKI-1 renal
# [39] = test system: PC-3 prostate
# [40] = test system: T-47D breast
# [41] = test system: IGROV1 ovarian
# [42] = test system: UACC-257 melanoma
# [43] = test system: DU-145 prostate
# [44] = test system: MDA-MB-435
# [45] = test system: CCRF-CEM leukemia
# [46] = test system: K-562 leukemia
# [47] = test system: HOP-92 NSCLC
# [48] = test system: NCI/ADR-RES ovarian
# [49] = test system: KM12 colon
# [50] = test system: HCT-15 colon
# [51] = test system: HOP-62 NSCLC
# [52] = test system: 786-0 renal
# [53] = test system: SF-539 CNS
# [54] = test system: SK-OV-3 ovarian
# [55] = test system: SF-295 CNS
# [56] = test system: MCF7 breast
# [57] = test system: RXF 393 renal
# [58] = test system: MOLT-4 leukemia
# [59] = test system: EKVX NSCLC
structure (smiles),measurement,setting,value
COc1cc(-c2nc(N)c(C#N)c3c2CCS(=O)(=O)c2ccc(C)cc2-3)cc(OC)c1OC,TGI,[1],> 100 µM
same,TGI,[2],> 100 µM
same,TGI,[3],> 100 µM
same,TGI,[4],> 100 µM
same,TGI,[5],75.9 µM
same,TGI,[6],> 100 µM
same,TGI,[7],51.1 µM
same,TGI,[8],> 100 µM
same,TGI,[9],> 100 µM
same,TGI,[10],> 100 µM
same,TGI,[11],> 100 µM
same,TGI,[12],> 100 µM
same,TGI,[13],> 100 µM
same,TGI,[14],> 100 µM
same,TGI,[15],> 100 µM
same,TGI,[16],70 µM
same,TGI,[17],> 100 µM
same,TGI,[18],> 100 µM
same,TGI,[19],> 100 µM
same,TGI,[20],> 100 µM
same,TGI,[21],> 100 µM
same,TGI,[22],> 100 µM
same,TGI,[23],> 100 µM
same,TGI,[24],26.9 µM
same,TGI,[25],> 100 µM
same,TGI,[26],> 100 µM
same,TGI,[27],> 100 µM
same,TGI,[28],> 100 µM
same,TGI,[29],> 100 µM
same,TGI,[30],> 100 µM
same,TGI,[31],> 100 µM
same,TGI,[32],29.5 µM
same,TGI,[33],69.8 µM
same,TGI,[34],> 100 µM
same,TGI,[35],56.3 µM
same,TGI,[36],> 100 µM
same,TGI,[37],> 100 µM
same,TGI,[38],> 100 µM
same,TGI,[39],> 100 µM
same,TGI,[40],> 100 µM
same,TGI,[41],> 100 µM
same,TGI,[42],> 100 µM
same,TGI,[43],> 100 µM
same,TGI,[44],> 100 µM
same,TGI,[45],> 100 µM
same,TGI,[46],> 100 µM
same,TGI,[47],54.8 µM
same,TGI,[48],> 100 µM
same,TGI,[49],> 100 µM
same,TGI,[50],> 100 µM
same,TGI,[51],> 100 µM
same,TGI,[52],> 100 µM
CC(=O)Oc1ccc2c(c1)[nH]c1c3ccc(OC(C)=O)cc3oc(=O)c21,TGI,[1],78.1 µM
same,TGI,[2],> 100 µM
same,TGI,[3],> 100 µM
same,TGI,[4],> 100 µM
same,TGI,[53],> 100 µM
same,TGI,[5],> 100 µM
same,TGI,[6],> 100 µM
same,TGI,[7],76.5 µM
same,TGI,[8],> 100 µM
same,TGI,[9],> 100 µM
same,TGI,[11],> 100 µM
same,TGI,[12],67.7 µM
same,TGI,[13],71.7 µM
same,TGI,[54],> 100 µM
same,TGI,[14],> 100 µM
same,TGI,[15],75 µM
same,TGI,[16],> 100 µM
same,TGI,[17],68.2 µM
same,TGI,[55],> 100 µM
same,TGI,[18],> 100 µM
same,TGI,[20],> 100 µM
same,TGI,[21],> 100 µM
same,TGI,[22],> 100 µM
same,TGI,[23],> 100 µM
same,TGI,[24],> 100 µM
same,TGI,[25],71.9 µM
same,TGI,[26],> 100 µM
same,TGI,[27],> 100 µM
same,TGI,[28],78.3 µM
same,TGI,[29],> 100 µM
same,TGI,[30],> 100 µM
same,TGI,[56],90.4 µM
same,TGI,[32],> 100 µM
same,TGI,[57],68.2 µM
same,TGI,[34],68.9 µM
same,TGI,[35],88.2 µM
same,TGI,[37],> 100 µM
same,TGI,[38],> 100 µM
same,TGI,[39],> 100 µM
same,TGI,[58],> 100 µM
same,TGI,[40],48.9 µM
same,TGI,[41],> 100 µM
same,TGI,[42],> 100 µM
same,TGI,[43],> 100 µM
same,TGI,[44],> 100 µM
same,TGI,[45],98.8 µM
same,TGI,[46],> 100 µM
same,TGI,[47],> 100 µM
same,TGI,[48],> 100 µM
same,TGI,[49],> 100 µM
same,TGI,[50],> 100 µM
same,TGI,[51],> 100 µM
same,TGI,[59],86.1 µM
same,TGI,[52],> 100 µM
